Earlier results as cited in the CATMoS acute toxicity set (Mansouri et al. 2021).
Where “and” joins values, the source holds several entries; their conditions need not be identical. Equal values may be shown once.

assay: rat acute oral toxicity; details: in vivo

Point of comparison: CC1Oc2ccccc2CC1N(C)C (centres undefined), LD50 812 mg/kg. Against it:
- FC(F)(F)c1nc2c(Br)c(Br)c(Br)c(Br)c2[nH]1 — 160-fold lower, 5.02 mg/kg
- COc1ccc([C@@H]2Sc3ccccc3N(CCN(C)C)C(=O)[C@@H]2OC(C)=O)cc1 — within 1.5-fold, 560 mg/kg
- Cc1cc(OC(=O)N(C)C)n(-c2ccccc2)n1 — 13-fold lower, 62 mg/kg
- CCOP(=S)(OCC)SCn1nc(Cl)c(Cl)cc1=O — 2.3-fold higher, 1880 mg/kg
- CCCCCCc1ccc(O)cc1O — within 1.5-fold, 550 mg/kg
- CCCCOC(=O)COc1cc(Cl)c(Cl)cc1Cl — 1.7-fold lower, 481 mg/kg
- C=C(Cl)C(Cl)CCl (centres undefined) — 2.4-fold lower, 341 mg/kg
- C=CC(=O)NC(C)(C)CS(=O)(=O)O — 20-fold higher, 16000 mg/kg
- CN1C(C(=O)Nc2ccccn2)=C(O)c2ccccc2S1(=O)=O — 3.8-fold lower, 216 mg/kg
- COP1(=S)OCc2ccccc2O1 (centres undefined) — 8-fold lower, 102 mg/kg
- CN[C@@H]1[C@H](O[C@H]2[C@H](O[C@H]3[C@H](O)[C@@H](O)[C@H](NC(=N)N)[C@@H](O)[C@@H]3NC(=N)N)O[C@@H](C)[C@]2(O)C=O)O[C@@H](CO)[C@H](O)[C@H]1O — 11-fold higher, 9000 mg/kg
- C=CC(C)=O — 35-fold lower, 23.1 mg/kg
- O=CN(c1ncnc2c1ncn2CC1CC1)C1CC1 — 1.6-fold lower, 500 mg/kg
- CCN(CCCCCCOC(=O)c1ccc(OC)c(OC)c1)C1CCc2cc(OC)c(OC)cc2C1 (centres undefined) — within 1.5-fold, 561 mg/kg
- CCCCC1C(=O)N(c2ccccc2)N(c2ccc(O)cc2)C1=O (centres undefined) — 2.5-fold lower, 329 mg/kg
- NC(=O)C(=O)O — 26-fold higher, 21100 mg/kg
- O=C1NCCCN1Cc1ccc(Cl)c(Cl)c1 — within 1.5-fold, 815 mg/kg
- O=[N+]([O-])c1cccc2ccccc12 — 5.4-fold lower, 150 mg/kg
- Nc1nc2ccc(Cl)cc2o1 — 3.6-fold lower, 226 mg/kg
- O=S(=O)(c1ccc(Cl)cc1)c1cc(Cl)c(Cl)cc1Cl — within 1.5-fold, 566 mg/kg
- NC(=S)Nc1ccc(Cl)cc1 — 54-fold lower, 15 mg/kg
- CC(C)(C)c1cc(C2C(=O)c3ccccc3C2=O)cc(C(C)(C)C)c1 — 4.2-fold lower, 194 mg/kg
- CCCCCCOc1ccc(NNC=O)cc1 — within 1.5-fold, 717 mg/kg
- CCCOc1c(Cl)c(Cl)c(Cl)c(Cl)c1Cl — 1.9-fold lower, 430 mg/kg
- CCCCCCCCc1ccc(C(C[n+]2ccccc2)OCCCC)cc1 (centres undefined) — 3.2-fold lower, 250 mg/kg
- OCCNC1CCCCC1 — 47-fold higher, 38300 mg/kg
- CCOP(=O)(OCC)Oc1ccc([N+](=O)[O-])c(Cl)c1 — 160-fold lower, 5 mg/kg
- NCCOC(=O)C=CC(=O)OCCN — 6.1-fold higher, 4920 mg/kg
- CC(O)C(Cl)(Cl)Cl (centres undefined) — within 1.5-fold, 1000 mg/kg
- N=C(N)SCc1ccccc1 — 30-fold lower, 27 mg/kg
- CCCCC(CC)COC(=O)CCCCCCCCCCC(=O)OCC(CC)CCCC (centres undefined) — 26-fold higher, 21500 mg/kg
- CCOc1ccc([N+](=O)[O-])cc1CNCCBr — 32-fold lower, 25 mg/kg
- CS(=O)C(C)(C)CO (centres undefined) — 14-fold higher, 11300 mg/kg
- CCN(C)N=O — 9-fold lower, 90 mg/kg
- O=C1C(O)N=C(c2ccccc2F)c2cc(Cl)ccc2N1CCO (centres undefined) — 3.1-fold higher, 2550 mg/kg
- CCOC(=S)SCSSCP(=O)(OCC)OCC — 58-fold lower, 14 mg/kg
- O=NN1CN2CN(C1)CN(N=O)C2 — within 1.5-fold, 940 mg/kg
- NC(N)=NCC1CCCCCCN1 (centres undefined) — 4.4-fold higher, 3550 mg/kg
- O=[N+]([O-])c1cc(Cl)c(N=Nc2ccc(N3CCS(=O)(=O)CC3)cc2)c(Cl)c1 — 3.9-fold higher, 3200 mg/kg
- NC1CCS(=O)(=O)C1 (centres undefined) — 22-fold higher, 17900 mg/kg
- CCOP(=O)(OCC)Oc1cc(C)n(CC)c(=O)c1 — 500-fold lower, 1.62 mg/kg
- N#CCN(CC#N)N=O — 5-fold lower, 163 mg/kg
- c1coc(COCc2ccco2)c1 — 3.9-fold lower, 210 mg/kg
- CCN(CC)CCC1(c2ccccc2)C(=O)Oc2ccccc21 (centres undefined) — within 1.5-fold, 600 mg/kg
- OC1(c2ccc(Cl)c(Cl)c2)c2ccccc2C2=NCCN21 (centres undefined) — 2.3-fold lower, 353 mg/kg
- CC(=O)N1CCOCC1 — 7.5-fold higher, 6130 mg/kg
- CCC1NC(=O)c2ccccc2O1 (centres undefined) — 1.6-fold higher, 1310 mg/kg
- CC[N+](CC)(CC)CCC(O)(c1ccccc1)C1CCCCC1 (centres undefined) — within 1.5-fold, 1100 mg/kg
- CC(C)CC(C)CC(CC(C)C)OCCO (centres undefined) — 7-fold higher, 5650 mg/kg
- O=C(c1cc(O)c(O)c(O)c1)c1ccc(O)c(O)c1O — 1.7-fold higher, 1420 mg/kg
- COP(=S)(OC)SCCSC(C)C — 5.4-fold lower, 150 mg/kg
- C=C(Cl)C(OC(C)=O)OC(C)=O — 2.5-fold lower, 320 mg/kg
- O=C(Cl)c1ccc(Oc2ccc(C(=O)Cl)cc2)cc1 — 11-fold higher, 8700 mg/kg
- Cc1cccc(C)c1N — 2.5-fold higher, 2040 mg/kg
- Cc1cc(C)c(C(=O)Cl)c(C)c1 — 2.8-fold higher, 2300 mg/kg
- CN(SSC(C)(C)C)C(=O)ON=C1SCCS1 — 140-fold lower, 5.6 mg/kg
- CN(C)C(=S)SCN1CCOCC1 — 1.8-fold higher, 1500 mg/kg
- FC(F)=C(F)c1ccccc1 — 3.1-fold higher, 2500 mg/kg
- Cc1c(Cl)ccc2[nH]c(C(F)(F)F)nc12 — 37-fold lower, 22 mg/kg
- COc1ccc(OC)c(Cc2cnc3nc(N)nc(N)c3c2C)c1 — within 1.5-fold, 1170 mg/kg
- CCOP(=O)(OCC)SCn1nc(C)oc1=O — 810-fold lower, 1 mg/kg
- O=Cc1ccc(O)cc1O — 2-fold lower, 400 mg/kg
- COc1ccc(OCC(=O)N[C@@H]2C(=O)N3[C@@H]2SC(C)(C)[C@@H]3C(=O)O)cc1F — 8.6-fold higher, 7000 mg/kg
- O=NN(CCCl)C(=O)NCCS(=O)(=O)N1CCCCC1 — 6.5-fold lower, 125 mg/kg
- ClC(Cl)c1cccc(Oc2ccccc2)c1 — 7.4-fold higher, 6000 mg/kg
- CCCOC(=O)OOC(=O)OCCC — 4.2-fold higher, 3400 mg/kg
- CCCN(CCCCOC(=O)c1ccc(OC)c(OC)c1)C1CCc2cc(OC)ccc2C1 (centres undefined) — within 1.5-fold, 707 mg/kg
- CN(C(=O)C[N+](C)(C)C)C(=O)Oc1cccc2c1OC(C)(C)C2 — 24-fold lower, 33.6 mg/kg
- CCCC(C)C(=O)O (centres undefined) — 2.5-fold higher, 2040 mg/kg
- CCOc1cc(OCC)c(C(=O)CCC(=O)O)cc1OCC — 3-fold higher, 2450 mg/kg
- CCCCCCCCCc1cccc(OCCOCC(=O)O)c1 — within 1.5-fold, 880 mg/kg
- CCCN=C(N)C(OCC)c1ccccc1 (centres undefined) — 1.5-fold lower, 530 mg/kg

In the case of CCCCC(CC)COC(=O)C=CC(=O)OCC(CC)CCCC (centres undefined), the LD50 is given as 29200 mg/kg and 14000 mg/kg.
